Values belong to the compound of their own block, whether it stands above or below them.
Assays:
[1] = target: Histamine H2 receptor (Homo sapiens) (UniProt P25021); assay: Selectivity interaction (Panel of non-epigenetic targets (kinases, GPCRs, ion channels, and transporters, Eurofins) ) EUB0000271b HRH2; conditions: at 1 µM
[2] = target: High affinity choline transporter 1 (Homo sapiens) (UniProt Q9GZV3); assay: Selectivity interaction (Eurofins CEREP Diversity Profile (receptors and ion channels)) EUB0000279b SLC5A7; conditions: at 10 µM
[3] = target: Mitogen-activated protein kinase 4 (Homo sapiens) (UniProt P31152); assay: Selectivity interaction (KinomeScan (DiscoverX)) EUB0000655a MAPK4; conditions: at 10 µM
D(3) dopamine receptor = D(3) dopamine receptor (Homo sapiens, UniProt P35462); assay: Selectivity interaction (GPCR panel (PDSP screen)) EUB0001079a DRD3; conditions: at 10 µM
[4] = target: cAMP-dependent protein kinase catalytic subunit beta (Homo sapiens) (UniProt P22694); assay: Selectivity interaction (KinomeScan (DiscoverX)) EUB0001079a PRKACB; conditions: at 1 µM
[5] = target: RAC-gamma serine/threonine-protein kinase (Homo sapiens, UniProt Q9Y243); assay: Selectivity interaction (KinomeScan (DiscoverX)) EUB0001079a AKT3; conditions: at 1 µM
[6] = target: Receptor-type tyrosine-protein kinase FLT3 (Homo sapiens) (UniProt P36888); assay: Selectivity interaction (Upstate Kinase Profiler service (Millipore)) EUB0000056c FLT3; conditions: at 1 µM
[7] = target: T1, Mitogen-activated protein kinase kinase kinase 6 (Homo sapiens) (UniProt O95382); assay: Selectivity interaction (ActivX KiNativ screen (kinase selectivity in THP-1 cell lysates)) EUB0000639a MAP3K6; format: subcellular; conditions: lysate
T1 sequence (whole entry): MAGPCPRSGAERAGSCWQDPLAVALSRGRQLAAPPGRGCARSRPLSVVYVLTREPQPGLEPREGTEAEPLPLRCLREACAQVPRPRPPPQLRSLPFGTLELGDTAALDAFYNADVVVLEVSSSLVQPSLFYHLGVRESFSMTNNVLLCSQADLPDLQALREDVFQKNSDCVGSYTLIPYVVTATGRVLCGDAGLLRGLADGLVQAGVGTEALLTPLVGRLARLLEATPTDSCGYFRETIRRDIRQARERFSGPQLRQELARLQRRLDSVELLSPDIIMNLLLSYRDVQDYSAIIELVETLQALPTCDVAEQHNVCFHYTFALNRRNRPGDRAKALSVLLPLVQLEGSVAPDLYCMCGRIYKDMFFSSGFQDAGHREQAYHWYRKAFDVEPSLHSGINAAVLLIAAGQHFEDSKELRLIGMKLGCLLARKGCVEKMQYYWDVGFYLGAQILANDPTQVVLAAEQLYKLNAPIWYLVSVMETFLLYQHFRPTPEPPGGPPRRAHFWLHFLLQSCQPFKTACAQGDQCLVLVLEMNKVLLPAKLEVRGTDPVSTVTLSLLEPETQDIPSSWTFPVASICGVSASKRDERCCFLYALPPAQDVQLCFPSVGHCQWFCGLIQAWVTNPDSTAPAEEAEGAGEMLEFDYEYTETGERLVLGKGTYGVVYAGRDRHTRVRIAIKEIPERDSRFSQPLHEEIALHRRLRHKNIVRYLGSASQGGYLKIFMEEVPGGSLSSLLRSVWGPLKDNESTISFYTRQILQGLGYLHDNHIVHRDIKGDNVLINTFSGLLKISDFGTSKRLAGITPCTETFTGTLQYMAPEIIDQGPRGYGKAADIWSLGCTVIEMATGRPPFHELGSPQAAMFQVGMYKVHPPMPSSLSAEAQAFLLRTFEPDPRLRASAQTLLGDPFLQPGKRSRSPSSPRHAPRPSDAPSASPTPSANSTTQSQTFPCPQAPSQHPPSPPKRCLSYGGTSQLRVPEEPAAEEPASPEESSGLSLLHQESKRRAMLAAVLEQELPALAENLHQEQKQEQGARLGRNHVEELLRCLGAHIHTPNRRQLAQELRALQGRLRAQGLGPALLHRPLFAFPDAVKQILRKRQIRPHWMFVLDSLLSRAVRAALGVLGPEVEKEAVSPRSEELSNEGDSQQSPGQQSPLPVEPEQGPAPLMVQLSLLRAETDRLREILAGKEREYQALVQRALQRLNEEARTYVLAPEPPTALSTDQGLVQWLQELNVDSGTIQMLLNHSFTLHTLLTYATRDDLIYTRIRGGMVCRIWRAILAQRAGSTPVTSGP

[8] = target: Phosphatidylinositol 4-kinase alpha (Homo sapiens, UniProt P42356); assay: Selectivity interaction (Kinase panel (Invitrogen)) EUB0000639a PI4KA; conditions: at 200 nM
[9] = target: T2, Serine/threonine-protein kinase Sgk1 (Homo sapiens) (UniProt O00141); assay: Selectivity interaction (ActivX KiNativ screen (kinase selectivity in THP-1 cell lysates)) EUB0000639a SGK1; format: subcellular; conditions: lysate
T2 sequence (whole entry): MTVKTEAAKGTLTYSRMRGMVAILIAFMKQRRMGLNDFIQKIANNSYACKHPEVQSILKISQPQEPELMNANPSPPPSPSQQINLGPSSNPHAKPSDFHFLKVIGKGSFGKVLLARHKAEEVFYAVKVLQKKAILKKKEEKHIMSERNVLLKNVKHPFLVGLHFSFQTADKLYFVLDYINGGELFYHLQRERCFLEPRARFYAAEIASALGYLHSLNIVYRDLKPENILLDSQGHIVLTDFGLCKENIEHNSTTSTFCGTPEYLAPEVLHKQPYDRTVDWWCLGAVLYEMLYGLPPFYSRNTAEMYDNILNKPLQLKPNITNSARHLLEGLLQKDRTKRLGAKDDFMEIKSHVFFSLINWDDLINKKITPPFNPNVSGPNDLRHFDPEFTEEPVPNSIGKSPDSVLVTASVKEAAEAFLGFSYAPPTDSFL

[10] = target: Leucine-rich repeat serine/threonine-protein kinase 2 (Homo sapiens, UniProt Q5S007); assay: Selectivity interaction (Enzymatic assay) EUB0001632a LRRK2
Leucine-rich repeat serine/threonine-protein kinase 2, sequence (Q5S007 whole entry): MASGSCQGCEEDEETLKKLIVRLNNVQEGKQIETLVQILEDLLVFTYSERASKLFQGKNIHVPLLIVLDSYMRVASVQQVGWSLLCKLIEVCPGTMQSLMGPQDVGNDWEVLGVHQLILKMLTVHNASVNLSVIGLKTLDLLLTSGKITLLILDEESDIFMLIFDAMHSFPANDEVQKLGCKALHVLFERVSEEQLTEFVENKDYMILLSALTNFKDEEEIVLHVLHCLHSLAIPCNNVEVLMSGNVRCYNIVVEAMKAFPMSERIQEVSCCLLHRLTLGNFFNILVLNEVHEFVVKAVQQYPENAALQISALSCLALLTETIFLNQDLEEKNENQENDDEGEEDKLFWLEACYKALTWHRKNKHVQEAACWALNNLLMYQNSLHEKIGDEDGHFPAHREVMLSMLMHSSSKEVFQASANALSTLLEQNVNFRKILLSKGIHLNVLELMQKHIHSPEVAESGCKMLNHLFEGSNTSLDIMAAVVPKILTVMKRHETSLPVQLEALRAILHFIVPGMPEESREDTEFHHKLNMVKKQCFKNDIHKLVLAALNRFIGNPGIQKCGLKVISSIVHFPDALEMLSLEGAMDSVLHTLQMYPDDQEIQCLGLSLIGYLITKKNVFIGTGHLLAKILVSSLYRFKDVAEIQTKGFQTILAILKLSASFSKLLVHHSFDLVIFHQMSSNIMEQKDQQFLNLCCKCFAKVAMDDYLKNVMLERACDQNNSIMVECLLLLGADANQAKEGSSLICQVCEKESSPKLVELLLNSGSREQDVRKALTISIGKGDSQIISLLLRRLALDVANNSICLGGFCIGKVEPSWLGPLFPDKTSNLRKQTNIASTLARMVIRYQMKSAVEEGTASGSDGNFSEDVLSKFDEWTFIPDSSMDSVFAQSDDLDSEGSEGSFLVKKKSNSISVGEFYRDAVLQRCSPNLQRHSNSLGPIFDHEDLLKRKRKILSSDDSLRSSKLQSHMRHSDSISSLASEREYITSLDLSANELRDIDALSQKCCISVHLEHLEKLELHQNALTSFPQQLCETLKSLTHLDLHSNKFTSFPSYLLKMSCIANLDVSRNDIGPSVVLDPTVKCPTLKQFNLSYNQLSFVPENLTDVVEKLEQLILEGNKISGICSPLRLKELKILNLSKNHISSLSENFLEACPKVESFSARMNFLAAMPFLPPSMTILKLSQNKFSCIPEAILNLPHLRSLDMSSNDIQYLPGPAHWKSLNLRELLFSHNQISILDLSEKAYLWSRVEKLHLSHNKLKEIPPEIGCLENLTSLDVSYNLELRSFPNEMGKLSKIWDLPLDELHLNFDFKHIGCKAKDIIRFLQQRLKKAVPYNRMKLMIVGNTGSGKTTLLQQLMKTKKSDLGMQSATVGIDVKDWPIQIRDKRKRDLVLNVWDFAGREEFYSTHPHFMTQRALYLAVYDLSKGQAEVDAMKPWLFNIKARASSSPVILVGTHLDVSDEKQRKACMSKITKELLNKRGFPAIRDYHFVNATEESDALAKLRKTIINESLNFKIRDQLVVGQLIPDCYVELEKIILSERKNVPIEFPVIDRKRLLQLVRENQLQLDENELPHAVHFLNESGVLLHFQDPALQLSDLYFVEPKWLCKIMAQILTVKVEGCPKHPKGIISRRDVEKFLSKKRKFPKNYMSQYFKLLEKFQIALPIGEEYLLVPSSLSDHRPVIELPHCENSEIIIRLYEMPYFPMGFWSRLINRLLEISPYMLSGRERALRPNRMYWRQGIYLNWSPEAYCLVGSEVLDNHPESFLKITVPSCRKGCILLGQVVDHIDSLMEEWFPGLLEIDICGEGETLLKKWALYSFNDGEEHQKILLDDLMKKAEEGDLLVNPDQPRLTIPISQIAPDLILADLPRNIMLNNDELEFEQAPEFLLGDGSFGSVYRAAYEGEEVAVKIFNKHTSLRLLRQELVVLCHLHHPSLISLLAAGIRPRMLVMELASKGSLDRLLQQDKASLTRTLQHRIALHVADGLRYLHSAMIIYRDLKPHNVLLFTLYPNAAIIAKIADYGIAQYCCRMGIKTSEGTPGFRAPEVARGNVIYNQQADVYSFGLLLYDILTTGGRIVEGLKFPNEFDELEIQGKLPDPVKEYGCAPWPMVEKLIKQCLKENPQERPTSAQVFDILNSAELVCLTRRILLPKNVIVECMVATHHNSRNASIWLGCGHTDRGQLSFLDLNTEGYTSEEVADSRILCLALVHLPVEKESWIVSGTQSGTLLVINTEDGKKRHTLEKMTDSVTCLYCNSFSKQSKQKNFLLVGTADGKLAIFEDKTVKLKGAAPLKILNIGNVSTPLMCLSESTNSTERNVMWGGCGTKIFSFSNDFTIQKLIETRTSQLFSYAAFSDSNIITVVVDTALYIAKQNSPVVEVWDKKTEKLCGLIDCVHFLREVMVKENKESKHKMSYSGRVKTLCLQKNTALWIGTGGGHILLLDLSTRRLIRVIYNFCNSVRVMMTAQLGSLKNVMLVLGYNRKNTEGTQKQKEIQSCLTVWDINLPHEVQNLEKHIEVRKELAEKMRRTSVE

RAC-gamma serine/threonine-protein kinase, sequence (Q9Y243 whole entry): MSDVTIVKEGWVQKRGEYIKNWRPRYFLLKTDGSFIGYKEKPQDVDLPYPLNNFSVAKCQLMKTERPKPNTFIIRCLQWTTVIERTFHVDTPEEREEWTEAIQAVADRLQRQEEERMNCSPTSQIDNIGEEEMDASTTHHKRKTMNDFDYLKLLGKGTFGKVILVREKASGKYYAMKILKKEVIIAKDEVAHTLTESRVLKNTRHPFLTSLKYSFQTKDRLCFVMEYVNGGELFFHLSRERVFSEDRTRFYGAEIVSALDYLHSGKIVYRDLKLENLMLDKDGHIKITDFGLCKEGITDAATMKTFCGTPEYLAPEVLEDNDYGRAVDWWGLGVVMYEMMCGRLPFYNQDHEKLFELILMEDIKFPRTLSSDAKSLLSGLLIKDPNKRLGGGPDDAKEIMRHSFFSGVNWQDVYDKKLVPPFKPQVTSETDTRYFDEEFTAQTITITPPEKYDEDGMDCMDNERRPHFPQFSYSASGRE
D(3) dopamine receptor, sequence (P35462 whole entry): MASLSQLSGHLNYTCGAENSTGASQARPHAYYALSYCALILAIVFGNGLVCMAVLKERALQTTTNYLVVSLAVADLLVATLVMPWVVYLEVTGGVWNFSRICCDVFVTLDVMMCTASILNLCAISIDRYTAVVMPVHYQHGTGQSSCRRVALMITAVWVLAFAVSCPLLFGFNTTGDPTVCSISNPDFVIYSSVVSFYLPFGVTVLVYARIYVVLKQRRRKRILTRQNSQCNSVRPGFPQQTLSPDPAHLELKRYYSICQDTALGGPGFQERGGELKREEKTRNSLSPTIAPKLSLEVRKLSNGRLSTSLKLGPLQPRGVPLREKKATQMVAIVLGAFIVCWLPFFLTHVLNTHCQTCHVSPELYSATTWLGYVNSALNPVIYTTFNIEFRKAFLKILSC
Mitogen-activated protein kinase 4 (Homo sapiens), sequence (P31152 whole entry): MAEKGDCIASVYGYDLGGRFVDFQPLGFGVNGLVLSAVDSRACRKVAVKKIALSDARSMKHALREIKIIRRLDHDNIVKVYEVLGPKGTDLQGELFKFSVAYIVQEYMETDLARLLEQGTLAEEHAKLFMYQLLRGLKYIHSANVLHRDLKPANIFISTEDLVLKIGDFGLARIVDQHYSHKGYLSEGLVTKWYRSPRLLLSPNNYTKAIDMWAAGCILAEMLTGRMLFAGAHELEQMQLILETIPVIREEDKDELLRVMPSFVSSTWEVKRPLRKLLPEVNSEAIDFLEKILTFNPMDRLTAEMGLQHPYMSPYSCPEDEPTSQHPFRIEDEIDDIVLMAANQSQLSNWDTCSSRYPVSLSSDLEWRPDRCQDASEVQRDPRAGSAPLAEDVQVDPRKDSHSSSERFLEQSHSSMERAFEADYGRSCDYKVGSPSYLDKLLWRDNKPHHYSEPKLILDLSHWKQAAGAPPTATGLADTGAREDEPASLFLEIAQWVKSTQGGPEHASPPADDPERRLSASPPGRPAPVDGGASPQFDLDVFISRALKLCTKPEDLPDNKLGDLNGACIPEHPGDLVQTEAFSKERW
Histamine H2 receptor (Homo sapiens), sequence (P25021 whole entry): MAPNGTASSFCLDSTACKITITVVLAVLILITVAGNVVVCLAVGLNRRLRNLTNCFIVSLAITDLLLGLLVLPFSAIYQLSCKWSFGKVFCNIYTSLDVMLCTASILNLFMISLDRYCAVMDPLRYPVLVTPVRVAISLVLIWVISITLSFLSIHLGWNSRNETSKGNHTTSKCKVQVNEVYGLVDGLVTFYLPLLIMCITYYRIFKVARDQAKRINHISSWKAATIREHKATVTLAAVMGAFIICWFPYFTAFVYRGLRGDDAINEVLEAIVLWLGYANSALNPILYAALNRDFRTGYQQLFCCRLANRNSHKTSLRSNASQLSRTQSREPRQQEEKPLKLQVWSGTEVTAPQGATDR
High affinity choline transporter 1 (Homo sapiens), sequence (Q9GZV3 whole entry): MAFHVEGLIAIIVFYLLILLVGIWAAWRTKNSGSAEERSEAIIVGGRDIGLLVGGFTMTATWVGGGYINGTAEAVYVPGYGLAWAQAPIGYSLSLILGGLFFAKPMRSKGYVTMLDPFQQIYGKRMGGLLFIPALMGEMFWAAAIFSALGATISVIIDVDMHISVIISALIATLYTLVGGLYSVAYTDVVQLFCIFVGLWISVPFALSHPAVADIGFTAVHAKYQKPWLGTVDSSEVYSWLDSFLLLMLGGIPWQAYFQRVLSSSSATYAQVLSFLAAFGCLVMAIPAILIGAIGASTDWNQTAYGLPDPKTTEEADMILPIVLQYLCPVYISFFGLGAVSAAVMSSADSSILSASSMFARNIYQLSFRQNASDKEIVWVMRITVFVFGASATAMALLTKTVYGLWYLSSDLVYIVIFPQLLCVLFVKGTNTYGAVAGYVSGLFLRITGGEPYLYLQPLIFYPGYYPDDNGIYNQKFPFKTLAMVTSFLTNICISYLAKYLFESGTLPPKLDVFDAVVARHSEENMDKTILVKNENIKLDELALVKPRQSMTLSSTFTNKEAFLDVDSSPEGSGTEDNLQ

Compound: Cc1cc(C)cc([C@@H]2c3cc(C)ccc3NC(=O)CN2C(=O)c2ccc(Br)s2)c1
% of inhibition [1]: -18%

Compound: CN(C)CCOc1ccc(-c2nc(-c3ccncc3)c(-c3ccc4c(c3)CC/C4=N\O)[nH]2)cc1
% of control [3]: 100%

Compound: Nc1cnc(N2CCc3cc(S(=O)(=O)Nc4c(F)cc(Cl)cc4F)cc(N4CCCC4=O)c32)nc1 [TP-020n]
% of inhibition (D(3) dopamine receptor): -5.02%
% of control [4]: 100%
% of control [5]: 94%

Compound: Cn1cc(-n2cnc3c(NCc4nc5cc(Cl)c(Cl)cc5[nH]4)nc(N4CCOCC4)nc32)cn1
IC50 [10]: > 10 µM

Results, then the compound that gave them:

% of control [2]: 90%
Compound: CC(=O)c1cc(-c2ccccc2OCC2CC2)c2ncccn12

% of inhibition [6]: -11%
Compound: Cc1ccc(-c2ccc3c(ccc4sc5c(c43)NC[C@@H](C)NC5=O)n2)cn1

% of inhibition ([7]; at 0.01 µM): -12.1%
% of inhibition ([7]; at 0.04 µM): -3.2%
% of inhibition ([7]; at 0.2 µM): 0%
% of inhibition ([7]; at 1 µM): -6.5%
% of inhibition ([7]; at 5 µM): -21.9%
% of inhibition [8]: -0.209%
% of inhibition ([9]; at 0.01 µM): -1%
% of inhibition ([9]; at 0.04 µM): 3.1%
% of inhibition ([9]; at 0.2 µM): -5.7%
% of inhibition ([9]; at 1 µM): -1%
% of inhibition ([9]; at 5 µM): -1.4%
Compound: CC[C@@H]1[C@H](F)C(=O)N[C@@H]1COc1nccc2cc(C(N)=O)c(OC)cc12 [ZIMLOVISERTIB]
